Target: T1, c-MYC (Homo sapiens, UniProt P01106)
T1 construct: Recombinant human c-MYC protein (ab169901)
Test: microscale thermophoresis with fluorescently labelled recombinant human c-MYC
Format: binding

T1 sequence (P01106 16-454): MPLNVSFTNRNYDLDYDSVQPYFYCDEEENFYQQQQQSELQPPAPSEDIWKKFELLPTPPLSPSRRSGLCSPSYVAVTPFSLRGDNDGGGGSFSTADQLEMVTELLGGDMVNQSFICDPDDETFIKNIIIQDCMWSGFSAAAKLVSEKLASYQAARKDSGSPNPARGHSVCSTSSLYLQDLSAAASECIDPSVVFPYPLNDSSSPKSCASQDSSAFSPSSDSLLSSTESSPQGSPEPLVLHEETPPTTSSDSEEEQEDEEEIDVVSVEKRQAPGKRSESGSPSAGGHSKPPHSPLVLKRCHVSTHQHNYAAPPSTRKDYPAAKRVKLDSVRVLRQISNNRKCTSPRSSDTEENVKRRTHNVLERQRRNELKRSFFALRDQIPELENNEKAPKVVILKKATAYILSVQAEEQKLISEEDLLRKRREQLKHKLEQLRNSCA

Compound: C[C@H]1[C@@H](OCC(CO[C@H]2O[C@@H]3O[C@@]4(C)CC[C@H]5[C@H](C)CC[C@@H]([C@H]2C)[C@@]35OO4)NNC(=O)c2ccncc2)O[C@@H]2O[C@@]3(C)CC[C@H]4[C@H](C)CC[C@@H]1[C@@]24OO3 (stereo partly shown) [ELI-XXIIID-98-2, ELI-XXIII-98-2]
- Kd: 1190 ± 240 nM

— publication PMC10144546, “The Novel Artemisinin Dimer Isoniazide ELI-XXIII-98-2 Induces c-MYC Inhibition, DNA Damage, and Autophagy in Leukemia Cells” (Pharmaceutics, 2023)
